Results as given in US20240390434A1, “PROBIOTIC ENHANCERS AND USES THEREOF” (Blis Technologies Limited, priority 2021, published 2024).

What was measured:
Format in all cases: cell-based
[1] = tested on: pathogens implicated in the ENT and Skin infections; test: Deferred antagonism assay with other S. salivarius producer strains
Experimental: (§1) Method: Preparation of solid culture media—CABCa agar plates were prepared with or without either 2.5% w/w raffinose or 0.5% w/w galactose by the addition of 0.5% (w/v) calcium carbonate to solid CAB agar in bottles and then melted by autoclaving at 110° C. for 10 mins. Once cooled, filter sterilised solutions of the saccharides or distilled water were added and mixed and then 20 ml pipetted into petri dishes.
Preparing S. salivarius producer suspension, about 6 colonies of each S. salivarius strain were added into separate tubes containing 1 ml THB and mixed well.
Deferred antagonism assay—100 μl of S. salivarius producer suspensions was dispensed onto CABCa plates supplemented with or without raffinose or galactose as droplets in a vertical line down the middle of the test plate. This suspension was then spread as 1.2 cm streak down the middle of the plate using a cutdown plastic spreader. Plates were incubated for 18 hours at 37° C., 5% CO2 in air.
After incubation, the bacterial growth was then removed from the agar plate using a sterile cotton swab. The pH of the producer streak was then adjusted by placing a 1 cm wide strip of filter paper soaked in 0.5M sodium carbonate pH 11 onto the agar plate to buffer the acid and adjust the pH up to around pH 6.5-7.5.
Plates were surface sterilised with chloroform vapour for 30 minutes, followed by air drying for 30 minutes.
Bacterial indicator suspensions were prepared by adding 3-9 colonies (depending on the size) of each strain into separate tubes containing 3 ml THB. These suspensions were then swabbed across the agar plate perpendicular to the producer streak and then the agar plate was incubated for a further 18 hours at 37° C., 5% CO2 in air.

[2] = tested on: halitosis-causing gram-negative bacteria F. nucleatum, P. gingivalis and P. intermedia; test: Deferred antagonism assay (anaerobic), producer K12; conditions: 2.5% w/w raffinose; 0.5% w/w galactose; or combination
Experimental: as §1, with “CABCa” for “Preparation of solid culture media—CABCa”, “without” for “without either”, “raffinose,” for “raffinose or”, “galactose or a combination of both saccharides” for “galactose”
A deferred antagonism assay was conducted using K12 or M18 raw ingredient suspended in THB. This was spread as a 1.2 cm streak containing approximately 1-2×10^6 cfu down the middle of a CABCa control or CABCa galactose supplemented test plate. After 18 hrs growth at 37° C., 5% CO2 in air, bacterial growth was removed, and the pH of the agar in the initial streak was measured and adjusted to a pH of 6.5-7.5 using 0.5M sodium carbonate pH11 before sterilizing the agar surface using chloroform vapor. Bacterial test strains were suspended in THB and swabbed across the plates perpendicular to the initial streak and then the plates were incubated at 37° C. in an anaerobic jar containing an anaeroGen sachet for 4 days. Zones of inhibition for each test strain were then measured (mm).

[3] = tested on: representative microorganisms from skin, dental, oral, ENTR diseases; test: Dose response assay with dairy free K12 or M18; conditions: 2.5% w/w raffinose vs equal weight percentage of saccharides; pH adjusted
Experimental: CABCa agar plates containing various concentrations of saccharide were prepared according to the methods described in Method 1. Producer strains were transferred from stock agar plates into 900 μL THB using a fresh cotton swab. A plastic spread plater was cut to approximately 1.2 cm width and then dipped into ethanol and left to air dry to ensure sterility. A 100 μL sample of the producer strain suspension was then dispensed onto the agar surface in a straight line running diametrically across the agar surface in (approximately) 20 μL spots. The spots were spaced approximately 1.5 cm apart from each other. The plastic spreader was then used to evenly distribute the spots across the agar surface in a 1.5 cm wide strip. This step was taken to ensure an even producer streak was inoculated onto the agar surface and provided an approximate measure of the initial inoculum concentration. Separate plastic spreaders were used for samples containing different producer strains. The samples were left to soak into the agar surface until there was no visible liquid remaining on the agar surface (approximately 20 minutes). Following producer streak preparations, the deferred antagonism assay protocol was followed as per Method 2. Results were recorded by measuring the size of the zone of inhibition (ZOI) in mm. […]

[4] = tested on: S. pyogenes strain as well as other microorganisms; test: Inhibitory activity of M18 grown in M17 broth with saccharides; conditions: saccharide 0.83% or 2.5% w/v, vs control
[5] = tested on: bacterial indicator strains; test: Split plate inhibitory activity of K12 in commercial powder Daily Defence Junior; conditions: raffinose 2.5% w/w, galactose 0.5% w/w, or combination
Experimental: Method: Formulations for testing were prepared as follows: • 1. Control: Commercial powder formulation (Daily Defence Junior) containing S. salivarius K12 • 2. Galactose 0.5% w/w was added to the commercial powder and mixed thoroughly to achieve a uniform mixture. • 3. Raffinose 2.5% w/w was added to the commercial powder and mixed thoroughly to achieve a uniform mixture.
The following method was used to measure the inhibitory effect of S. salivarius K12 in the context of the powder formulations. Exactly 40 mL of 50° C. molten CAB agar containing 0.5% calcium carbonate (CABCa) was poured in agar plates (120×120 mm). Once the agar was set upon cooling, it was split in the middle and half of the agar gel was removed. The other half was left on the plate as Blank agar marked as side “A”. Approximately, 0.8 g of each combination (DDJ powder with (1) galactose, (2) raffinose or (3) combination of raffinose and galactose) was mixed with 1 mL of sterile distilled water and vortexed to produce a homogeneous suspension. […] The pH of the producer side was measured and adjusted to 6.5-7.5 by soaking into the agar a solution of 0.5 M sodium carbonate pH 11. […] The zone of inhibition of each indicator strain was measured (in mm) using a ruler. Results were also read using a macroscope to establish presence of small colonies or complete inhibition zones.

| Compound | induction of inhibitory effect in other S. salivarius strains ([1]; 0.5% w/w galactose, compared with K12 and M18) | antimicrobial activity of K12 against halitosis-causing gram-negative bacteria [2] | inhibitory action of dairy free K12 or M18 [3] | inhibitory activity of M18 grown in presence of saccharide [4] | inhibitory activity of S. salivarius K12 in commercial powder vs control [5] | induction of inhibitory effect in other S. salivarius strains, exception ATCC 7073 ([1]; 2.5% w/w raffinose, compared with K12 and M18) | antimicrobial activity of S. salivarius strain ATCC 7073 ([1]; supplemented with 2.5% w/w raffinose) |
| --- | --- | --- | --- | --- | --- | --- | --- |
| O=C[C@H](O)[C@@H](O)[C@@H](O)[C@H](O)CO [Galactose, D-galactose] | does not induce the same inhibitory effect | did not induce antimicrobial activity | enhanced inhibitory activity | greater inhibitory activity | increased | – | – |
| OC[C@H]1O[C@H](OC[C@H]2O[C@H](O[C@]3(CO)O[C@H](CO)[C@@H](O)[C@@H]3O)[C@H](O)[C@@H](O)[C@@H]2O)[C@H](O)[C@@H](O)[C@H]1O [Raffinose, D-(+) Raffinose pentahydrate] | – | inhibit a variety of strains | enhanced inhibitory action | greater inhibitory activity | increased | does not induce same inhibitory effect | antimicrobial activity |
